“Also recorded” adds a separate entry of the source. Structures can show the parent of a compound that is named as a salt.
Assays:
[1] = tested on: cancer stem cells (CSC) derived from NSCLC (H157); experiment: Annexin-V apoptosis assay in lung cancer stem cells; type: cell-based, human; conditions: compared with bulk NSCLC cells, 3 independent experiments
Method: FIG. 3. […] A comparison is performed using bulk NSCLC cells. Results based on annexin-V assays in 3 independent experiments.
Analogues of parthenolide were prepared and purified (FIG. 8) and assessed for antitumor efficacy, to develop the best agents for clinical use. Responses of CSC-like subsets, bulk tumor cells and normal lung epithelial cells to parthenolide (PTL) analogues alone and with chemotherapy are ongoing, with assessments by TUNEL and Annexin-V assay for apoptosis (13) (FIG. 3) and cell proliferation (FIG. 4).

[2] = tested on: H157 NSCLC cells (bulk and CSC-subpopulations); experiment: Proliferation of NSCLC bulk cells and CSC subpopulations; type: cell-based, human; conditions: bulk cell preparations and CSC-subpopulations; drug dose 20 micromolar; P<0.05 vs control
Excerpt: FIG. 4. […] JD201 drug dose=20 micromolar.
Lung cancer is the leading cause of cancer death in men and women worldwide. The poor prognosis of advanced non-small cell lung cancer (NSCLC) is due, in part, to emergence of tumor resistance to chemotherapy. […] If such minute subsets of CSC drive tumor formation and drug resistance, therapies targeting the bulk tumor mass but not CSC will fail. […] We identified CD133+/ALDH+ tumor stem/progenitor cells from human lung cancer cells in vitro using established Aldefluor assays in combination with labeled anti-CD133 antibodies. […] The antitumor effect of PTL may be due to its action as a potent inhibitor of nuclear factor-KB (NF-κB), which is markedly activated by chemotherapy. To target CSC and suppress tumor progression, we synthesized and tested novel analogs of PTL with improved antitumor properties and aqueous solubility. […] Dose-dependent increments of PTL analogs increase apoptosis of CSC when compared with bulk cells. […] Using Western blots, we find that PTL congeners inhibit phosphorylation of the p65 subunit of phospho-NF-κB and activation of IKKα/β. […]
Analogues of parthenolide were prepared and purified (FIG. 8) and assessed for antitumor efficacy, to develop the best agents for clinical use. […]

[3] = tested on: A549, H23, H2122 and H1975 NSCLC cells; experiment: MTS cell viability/proliferation assay in NSCLC cell lines, 72 h; type: cell-based, human; conditions: for growth inhibition at 10 μM / growth inhibition at 100 μM: A549, H23, H2122, H1975; for inhibitory activity relative to other analogues: FIG. 5, 0.1-100 μM
Method: FIG. 5. Parthenolide analogues JD201-JD210 suppress human lung tumor cell proliferation in vitro. A549, H23, H2122 and H1975 NSCLC cells were treated with increasing concentrations of drugs (0.1-100 μM). After 72 h cell viability was assessed by MTS assay. Viable cells are expressed as percentage of vehicle control. P<0.01 (**), versus control group, P<0.05 (*), versus control group. Natural occurring parthenolide (PTL), parthenolide analogues JD201 (DMAPT)-JD210. Parthenolide analogues inhibit female (H1975, H2122) and male (H23, A549) NSCLC cell proliferation.
To determine the effect of parthenolide analogues in lung cancer cell proliferation we tested two male (A549, H23) and two female (H2122, H1975) lung cancer cell lines with increasing concentrations of parthenolide analogues (0.1, 1, 10 and 100 μM) for 72 hours.

[4] = tested on: NF-κB/p65 phosphorylation; experiment: Western blot of phospho-NF-κB/p65 in H23 cells; type: cell-based, human; conditions: for phosphorylation of the p65 subunit of NF-κB: 10 μM, 60 min (FIG. 7); for phosphorylation of NF-κB/p65: 10 µM, 60 min (FIG. 13)
Method: FIG. 7. […] After 60 min Western blot were performed using anti-phospho-NF-κB/p65 antibody (Cell Signaling Technology #3031). Membranes were stripped and re-probed with antibody against total NF-κB/p65 (CST #3037).
After 60 min, Western blots were done using anti-phospho-NFκB/p65 antibody (Cell Signaling).
Upon confirming that parthenolide analogues can inhibit NSCLC cell proliferation, induce cell death and enhance the cytotoxicity of chemotherapy, we began to investigate potential cellular mechanisms that may underlie this process. For example, we used Western Blot methods to determine phosphorylation of the p65 subunit of NF-κB. H23 cells were incubated in the presence of vehicle control or 10 μM concentration of the parthenolide derivatives (JD 201, 202, 203, 204) for 60 min. After treatment, cells were collected and homogenized in lysis buffer. Extracts were electrophoresed on 4-20% gradient SDS-PAGE gels and transferred to nitrocellulose membranes. Blots were probed with anti-phospho-NF-κB/p65 and NF-κB/p65 for a loading control.

A549 NSCLC xenografts = A549 NSCLC xenografts in immunodeficient mice; type: in vivo
MCF-7/HER2 cells = experiment: Proliferation of tamoxifen-resistant MCF-7/HER2 cells (cell counts); conditions: 72 hours; for proliferation of MCF-7/HER2 cells: 0.1-50 micromolar, cell counts, P<0.001 vs controls
Method: Assays for Tumor Cell Proliferation. […] Cell counts and viability tests (Trypan blue) will be done every 24 hr for 2-33 days. After 48-72 hr, proliferation was assessed by cell counts.

[5] = tested on: NF-κB/p65 phosphorylation; experiment: Western blot of cisplatin-mediated phospho-NF-κB/p65 in A549 cells; type: cell-based, human; conditions: 5 μM cisplatin and/or 20 μM analog, time course
Method: FIG. 9. […] Western blots were then performed using anti-phospho-NF-κB/p65 antibody (Cell Signaling Technology #3036) and anti-phospho-IκBα antibody (CST #2859). Membranes were then stripped and reprobed with antibody against total NF-κB/p65 (CST #3987) and antibody against total IκBα (CST #4814).

[6] = tested on: MCF-7/TAMR breast cancer cells; experiment: Proliferation of tamoxifen-resistant MCF-7/TMR (TAM-R) cells; type: cell-based, human; conditions: analogue at varying doses plus tamoxifen 1×10^-7 M, 48 hours; P<0.01
Method: MCF-7/CON cells are tamoxifen-sensitive, while MCF-7/HER2 and MCF-7/TMR cells are known to be tamoxifen-resistant (28,61,66,67). Except for TMR (64,68), cells were routinely cultured in RPMI 1640 media with 10% heat-inactivated FBS (28,64,66). For E2-free conditions, media were changed 48 h before studies to phenol-red free RPMI 1640 with 1% dextran-coated, charcoal-treated (DCC) FBS. TMR cells were derived by long-term continuous exposure of cells to 10^−7 M 4-hydroxy-tamoxifen by established methods (64,68) and were maintained with 10^−7 M 4-hydroxytamoxifen in medium. Levels of ERα and HER2 expression in these several cell lines were determined by use of Western blot methods.
Assays for Tumor Cell Proliferation. Breast tumor cells were be grown in RPMI 1640 media with 10% heat-inactivated FBS (except for TMR and TZR cells as noted above). For estrogen-free conditions, medium were changed 48 h before studies to phenol-red free RPMI 1640 with 1% dextran-coated, charcoal-treated (DCC) FBS, then treated with selected reagents. Cell counts and viability tests (Trypan blue) will be done every 24 hr for […]. After 48-72 hr, proliferation was assessed by cell counts.

SKBR3/TZR cells = experiment: Proliferation of trastuzumab-resistant SKBR3/TZR cells; type: cell-based, human; set-up: dose or concentration left out as unconfirmed; conditions: 0.1 to 50 micromolar alone or with trastuzumab, 72 hours
Method: Assays for Tumor Cell Proliferation. […] Cell counts and viability tests (Trypan blue) will be done every 24 hr for […]. After 48-72 hr, proliferation was assessed by cell counts.
The human breast cancer cell line SKBR3 (ATCC) was obtained from the American Type Culture Collection (ATCC). Unless otherwise stated, monolayer cultures of SKBR3 were maintained in Dulbeccos' Modified Eagle's Media (DMEM):F12 medium with 10% FBS.

ELT3 cells = experiment: Proliferation of ELT3 cells (TSC-related disease model); type: cell-based, rat; conditions: 72 hours, IIA medium with 1% FBS, cell counts
Method: (§1) FIG. 19. […] Cells were counted and plated and then treated with parthenolide analogue JD203 or control for 72 hours using IIA medium with 1% FBS. At the end of the experiments, cell proliferation was quantitated based on cell counts. Experimental results (n=3) shown as % control (mean±SE).
(§2) We have tested inhibitory activity of parthenolide analogues using cell models for TSC-related proliferative disease. The ELT3 cells are a TSC2-null smooth muscle-derived cell line from a rat uterine leiomyoma and often used as a model for lymphangioleiomyomatosis (LAM) and other TSC-related proliferative diseases (75,76). Angiomyolipoma cells (AML) that have inactivating mutations in both alleles of the TSC2 gene were also used as an alternate cell model (77,78). Cells were routinely cultured in IIA complete medium (50% DMEM, 50% F-12, […] NaHCO3, […] FeSO4, 50 nM sodium selenite, […] insulin, 200 nM hydrocortisone, […] transferrin, 1 nM triiodothyronine, 10 mU/ml vasopressin, 10 nM cholesterol, 10 ng/ml epidermal growth factor) containing 15% FBS. For study of proliferation, cells were incubated for 3 days in IIA medium containing 1% FBS. Results of these experiments indicate that parthenolides may also have utility in the treatment of TSC-related proliferative diseases that are not classified as malignancies.

[7] = tested on: angiomyolipoma (AML) cells; experiment: Proliferation of angiomyolipoma (AML) cells; type: cell-based; conditions: 72 hours, IIA medium with 1% FBS, cell counts
Method: as §1, §2

Aqueous solubility = type: physicochemical
cancer cells = experiment: Structure-activity study of antitumor activity; conditions: compared to other known parthenolide derivatives such as DMAPT
Excerpt: We have developed a set of novel analogues of parthenolide which have both improved aqueous solubility and antitumor properties. An extensive structure-activity study was done to investigate parthenolide and its analogues. […] These water-soluble compounds, for example analog JD206, may be conjugated to sugars or peptides that may be selectively targeted to cancer cells, particularly cancer stem cells.

| SMILES | apoptosis of cancer stem cells (annexin-V) [1] | proliferation of NSCLC cells [2] | growth inhibition at 10 μM [3] | growth inhibition at 100 μM [3] | inhibitory activity relative to other analogues [3] | phosphorylation of the p65 subunit of NF-κB ([4]; listed as 201) | phosphorylation of the p65 subunit of NF-κB ([4]; listed as JD 201) | phosphorylation of NF-κB/p65 [4] | tumor progression (A549 NSCLC xenografts; oral gavage 100 mg/kg/day for 21 days vs vehicle control) | tumor volumes (A549 NSCLC xenografts; oral gavage 100 mg/kg/day for 21 days, vehicle controls 252±31 mm^3) [mm^3] | proliferation of MCF-7/HER2 cells (MCF-7/HER2 cells) | phosphorylation of the p65 subunit of NF-κB [4] | cisplatin-mediated phosphorylation of NF-κB/p65 [5] | proliferation of MCF-7/TAMR cells, combination with tamoxifen [6] | proliferation of SKBR3/TZR cells (SKBR3/TZR cells) | proliferation of ELT3 cells (ELT3 cells) | proliferation of angiomyolipoma (AML) cells [7] | water solubility compared to DMAPT (JD201) (Aqueous solubility) | anticancer activity compared to DMAPT (JD201) (cancer cells) | proliferation of MCF-7/HER2 cells, combination with tamoxifen (MCF-7/HER2 cells; analogue 0.1 to 50 micromolar with tamoxifen 1×10^-7 M, P<0.01) |
| --- | --- | --- | --- | --- | --- | --- | --- | --- | --- | --- | --- | --- | --- | --- | --- | --- | --- | --- | --- | --- |
| C/C1=C\CC[C@@]2(C)O[C@H]2[C@H]2OC(=O)[C@@H](CN(C)C)[C@@H]2CC1 [JD201, (1aR,7aS,8R,10aS,Z)-8-((Dimethylamino)methyl)-1a,5-dimethyl-2,3,6,7,7a,8,10a,10b-octa-hydrooxireno[2′,3′:9,10]cyclodeca[1,2-b]furan-9(1aH)-one, fumaric acid salt, reference compound] | dose-dependent increments in apoptosis | inhibits proliferation | Significant growth inhibition | Significant growth inhibition | greater inhibitory activity than compounds 205 and 207 | inhibit phosphory-lation of NF-κB/p65 | reduced phosphorylation of the p65 subunit of NF-κB | inhibit phosphorylation of NF-κB/p65 | reduction in tumor progression | 55±5 | dose-dependent (0.1-50 micromolar) reduction in proliferation |  |  |  |  |  |  |  |  |  |
| C/C1=C/CC[C@@]2(C)OC2[C@H]2OC(=O)[C@@H](CN(CCO)CCO)[C@@H]2CC1.O=C(O)/C=C/C(=O)O (stereo partly drawn) [JD203, (1aR,7aS,8R,10aS,Z)-8-((Bis(2-hydroxyethyl)amino)methyl)-1a,5-dimethyl-2,3,6,7,7a,8,10a, 10b-octahydrooxireno[2′,3′:9,10]cyclodeca[1,2-b]furan-9(1aH)-one, fumaric acid salt] |  |  | Significant growth inhibition | Significant growth inhibition | greater inhibitory activity than compounds 205 and 207 |  |  | inhibit phosphorylation of NF-κB/p65 |  |  | dose-dependent (0.1-50 micromolar) reduction in proliferation | reduced phosphorylation of the p65 subunit of NF-κB; also recorded: inhibit phosphory-lation of NF-κB/p65 | inhibit cisplatin-mediated phosphorylation of NF-κB/p65 | enhanced blockade of tumor cell proliferation; also recorded: promotes antitumor effects of tamoxifen | reduces proliferation of SKBRS/TZR cells alone and in combination with trastuzumab | inhibits proliferation | inhibits proliferation | improved water solubility | strong anticancer activity | greater reduction in cell proliferation than treatment with the analogue alone |

Source: patent US9512138B2, “Compositions and methods for treating cancer” (The Regents of the University of California, priority 2012, dated 2016)
